The values that follow come from patent US9670238B1 (priority 2015, dated 2017).

“Also recorded” adds a separate entry of the source. Like-named read-outs stand apart in the source and are kept apart here.

Broadly, the IC50 is the concentration that inhibits the measured activity by half.

Data set [1] deals with T1, CDA (1-146aa), Human, His-tagged, Recombinant cytidine deaminase (Homo sapiens, UniProt P32320).
T1 construct: CDA (1-146aa), Human, His-tagged; His tag; purchased ATGen
Type of data set: in vitro ADME. As to conditions: PBS with cytidine deaminase, 37° C., about 30 minutes to 1 hour. Here is the method: 1 mg each of the 5′-dibenzyl phosphate derivatives of 5-azacytidines (formula (1)) was dissolved in 1 mL of acetonitrile. 10 μL of the solution was diluted with 1 mL of PBS. 10 μL of PBS solution of cytidine deaminase was added and stirred at 37° C. for about 30 minutes to 1 hour. 1 mL of acetonitrile was added to the reaction solution and separated by centrifugation. The supernatant obtained was analyzed with HPLC.
Cytidine deaminase: CDA (1-146aa), Human, His-tagged, Recombinant cytidine deaminase (ATGen)
Column: CAPCELL PAK ADME (4.6 mm×150 mm, particle size:3 μm)
Elution: A=Purified water containing 10 mM ammonium formate • B=Acetonitrile • Gradient mode: A:B=99:1→5:95/30 minutes

The subject of data set [2] is myeloma cells (RPMI-8226). The experiment in a line: Anti-myeloma activity, inhibition of cell proliferation. Type of data set: cell-based. To be noted: RPMI-8226, 72 hours incubation, cell count. How it is done:
To the solutions containing about 4000 myeloma cells (RPMI-8226), solutions of 5′-dibenzyl phosphate derivatives of 5-azacytidines at concentrations of 0.0033 μM, 0.01 μM, 0.033 μM, 0.1 μM, 0.33 μM, 1 μM, 3.3 μM, 10 μM, 33 μM, or 100 μM were added. After incubation in RPMI-1640 (containing 10% FBS and 1% Penn-strep) for 72 hours, cell count was determined and the values of IC50 were calculated as inhibitory effect against cell proliferation (referring to Journal of Clinical Pathology, 2006, 59, 947-951).

Data set [3] in a line: Non-enzymatic hydrolysis reactivity in PBS solution at 37° C. (HPLC). Type of data set: physicochemical. To be noted: for 5-Azacytidine or 2′-deoxy-5-azacytidine (%) After 4 hours / 5-Azacytidine or 2′-deoxy-5-azacytidine (%) After 8 hours / 5-Azacytidine or 2′-deoxy-5-azacytidine (%) After 24 hours: PBS pH7.4 to 7.5, 37° C.; for Hydrolysis in PBS solution to the corresponding 5-azacytidines (in words): 37° C., up to 24 hours. How it is done:
About 1 mg each of the obtained 5′-dibenzyl phosphate derivatives of 5-azacytidines (referring to formula (1)), such as O,O′-dibenzyl 5-azacytidylate (compound A) or O,O′-dibenzyl 2′-deoxy-5-azacytidylate (compound B) was dissolved in 1 mL of acetonitrile. 5 μL of the solution was added to 100 μL of PBS solution (pH7.4 to 7.5) and the solution was stirred at 37° C. The reactions were traced by HPLC analysis.
HPLC conditions were same as those in test example 1.

Data set [4] in a line: Partition coefficient (n-octanol/PBS). It counts as physicochemical. The text has this: The separation systems using a silica gel column, separation yields, data obtained from instrumental analysis and partition coefficients of 5′-dibenzyl (or diphenethyl, diphenyl) phosphate derivatives of 5-azacytidines (compounds A to H) which were synthesized according to the methods A and B are shown as below.

T1 sequence (P32320 whole entry): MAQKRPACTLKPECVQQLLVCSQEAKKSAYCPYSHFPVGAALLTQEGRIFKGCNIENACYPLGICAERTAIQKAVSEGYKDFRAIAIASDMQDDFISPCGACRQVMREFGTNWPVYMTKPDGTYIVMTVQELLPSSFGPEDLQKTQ

With `Nc1ncn([C@H]2C[C@H](O)[C@@H](CO)O2)c(=O)n1` [2′-Deoxy-5-azacytidine, 2′-deoxy-5-azacytidine, reference compound], the “Change in HPLC pattern (peak of the starting material)” value (shortened to “Change in HPLC pattern”) in data set [1] was “The peak of the starting material disappeared”; in data set [1] (listed as 2′-deoxy-5-azacytidine), “disappeared completely”. The compound also yielded a 50% inhibitory concentration (IC50) in data set [2] (Homo sapiens) of 30 nM.
As for “O,O′-di(4-fluoro)benzyl 2′-deoxy-5-azacytidylate [compound D]”, in data set [1], the “Change in HPLC pattern” value was “Almost no change in the peak of the starting”. The compound also showed an IC50 in data set [2] of 780 nM.
In the case of “O,O′-dibenzyl 2′-deoxy-5-azacytidylate [compound B]”, the “Change in HPLC pattern” value in data set [1] is given as “Almost no change in the peak of the starting”. Also, in data set [3], the “5-Azacytidine or 2′-deoxy-5-azacytidine (%) After 4 hours” value is given as 8%, the “5-Azacytidine or 2′-deoxy-5-azacytidine (%) After 8 hours” value is 8%, the “5-Azacytidine or 2′-deoxy-5-azacytidine (%) After 24 hours” value turned out to be 45% and the “Hydrolysis in PBS solution to the corresponding 5-azacytidines (in words)” value (“Hydrolysis in PBS solution” below) was “gradually hydrolyzed”.
As to “O,O′-dibenzyl 5-azacytidylate [compound A]”, in data set [4], the “Partition coefficient, Log P” value amounted to 0.83. In addition, the “Change in HPLC pattern” value in data set [1] was “Almost no change in the peak of the starting”. The IC50 in data set [2] was 1710 nM. Moreover, in data set [3], the “5-Azacytidine or 2′-deoxy-5-azacytidine (%) After 4 hours” value worked out at 18%, the “5-Azacytidine or 2′-deoxy-5-azacytidine (%) After 8 hours” value came to 35%, the “5-Azacytidine or 2′-deoxy-5-azacytidine (%) After 24 hours” value is listed as 67% and the “Hydrolysis in PBS solution” value was “gradually hydrolyzed”.
As for “O,O′-diphenethyl 5-azacytidylate [compound F]”, in data set [1], the “Change in HPLC pattern” value is on record as “Almost no change in the peak of the starting”. Further, the “Hydrolysis in PBS solution” value in data set [3] is “almost no change was confirmed even after 24 hours; also recorded: could not be observed”.
As for “O,O′-diphenyl 2′-deoxy-5-azacytidylate [compound H]”, the “Change in HPLC pattern” value in data set [1] was “extremely stable”.
Turning to “O,O′-diphenyl 5-azacytidylate [compound G]”, the “Change in HPLC pattern” value in data set [1] is recorded as “extremely stable”. The compound also registered a 50% inhibitory concentration (IC50) in data set [2] above 100000 nM. Besides, the “Hydrolysis in PBS solution” value in data set [3] is recorded as “almost no change was confirmed even after 24 hours; also recorded: could not be observed”.
